These results are taken from patent US20130072472A1, “N[…] ANSOLVATES” (DemeRx, Inc., priority 2011, published 2013).

Where a name gives a salt, the structure may show the parent alone.

Assay type in all cases: physicochemical
The nature of data set [1]: Drying of solvated forms, gravimetric weight loss and XRPD. To be noted: for gravimetric weight loss: hydrochloride. How it is done: Two other moisture absorbing, unstable, polymorphs of noribogaine hydrochloride, Forms F and G, which had mutually similar XRPD patterns were also identified. Form G was isolated from a slurry of Form A in MeOH at ambient temperature. Material G likely contains MeOH and water, and Form F (or Form II) is likely hydrated. […] A sharp weight loss at ˜312° C. indicated likely decomposition. Both Forms G and F are contemplated to readily pick up moisture from the atmosphere.

Data set [2] in a line: Polymorphic conversion of solvated form on stirring in EtOH/water or heating. From the text: Such a desolvation is surprising, given that it occurs upon stirring in another solvent, which comprises hydroxy groups and alkyl moieties as in MeOH. As described above, form F is a solvated polymorph that is obtained from MeOH.
A short description of data set [3]: Thermogravimetric analysis (TGA). The conditions noted are these: for TGA sharp weight loss / onset of probable decomposition: TGA thermogram. The protocol:
Thermogravimetric analyses were performed using a TA Instruments Q5000 IR thermogravimetric analyzer. Temperature calibration was performed using nickel and Alumel™ Each sample was placed in an aluminum pan. The sample was hermetically sealed, the lid pierced, then inserted into the TO furnace. The furnace was heated under nitrogen.

Data set [4] in a line: Approximate aqueous solubility of noribogaine salt forms. The conditions noted are these: water.
A short description of data set [5]: Dynamic vapor sorption (DVS). To be noted: for State of the solids after DVS sorption/desorption: post-DVS, 5 to 95 to 5% RH. The protocol: Dynamic vapor sorption (DVS) data were collected on a VTI SOA-100 Vapor Sorption Analyzer. NaCl and PVP were used as calibration standards. Samples were not dried prior to analysis. Sorption and desorption data were collected over a range from 5 to 95% RH at 10% RH increments under a nitrogen purge. The equilibrium criterion used for analysis was less than 0.0100% weight change in 5 minutes with a maximum equilibration time of 3 hours. Data were not corrected for the initial moisture content of the samples.

Data set [6] can be described thus: Approximate ambient-temperature solubility, solvent addition method. The conditions noted are these: thermodynamic from solid. How it is done: The approximate ambient-temperature solubilities of noribogaine hydrochloride Form A were measured in a variety of solvents and solvent mixtures using the solvent addition method (Table 2).
The solubility of noribogaine hydrochloride ansolvate were determined as tabulated below.

`CC[C@H]1CC2C[C@H]3c4[nH]c5ccc(O)cc5c4CCN(C2)C13` [Form F, noribogaine hydrochloride] gave a gravimetric weight loss in data set [1] of 4.1%. For the same compound, the “Polymorphic form change upon heating” value in data set [2] (heating) was “converts to the ansolvate form A”. Moreover, the “Polymorphic form change upon stirring” value in data set [2] (stirring in 9:1 ethyl alcohol and water) is on record as “converted to the ansolvate form A”. In addition, in data set [3] (hydrochloride), the “TGA sharp weight loss / onset of probable decomposition” value (from here on “TGA sharp weight loss / onset”) is around 312 °C.
As to `CC[C@H]1CC2C[C@H]3c4[nH]c5ccc(O)cc5c4CCN(C2)C13` [Form G, noribogaine hydrochloride], the “Polymorphic form after weight loss, by XRPD” value in data set [1] is listed as “converted to Form A”. Besides, the gravimetric weight loss in data set [1] (listed as material G) came to 7.95%.
As to `CC[C@H]1CC2C[C@H]3c4[nH]c5ccc(O)cc5c4CCN(C2)C13` [HCl, Form A, noribogaine hydrochloride], the “Approx. Aqueous Solubility” value in data set [4] (hydrochloride) fell in the range of 1000 to 4000 µg/mL. Moreover, the DVS weight gain/loss entry in data set [5] (between 5 and 95% relative humidity) is “approximately 0.03%”. The “TGA sharp weight loss / onset” value in data set [3] (listed as Form A, hydrochloride) was around 316 °C. Also, the TGA weight loss result in data set [3] (prior to ~316° C.) is given as “negligible weight loss”. Further, the solubility was 9000 µg/mL in data set [6] (aqueous with cosolvent or surfactant or cyclodextrin, ACN:water 80:20, ambient temperature); 11000 µg/mL in data set [6] (aqueous with cosolvent or surfactant or cyclodextrin, Acetone:water 50:50, ambient temperature); 10000 µg/mL in data set [6] (aqueous with cosolvent or surfactant or cyclodextrin, TFE:water 50:50, ambient temperature); below 1000 µg/mL in data set [6] (organic solvent or mixture, Acetone, ambient temperature); below 1000 µg/mL in data set [6] (organic solvent or mixture, CAN, ambient temperature); below 1000 µg/mL in data set [6] (organic solvent or mixture, EtOAc, ambient temperature). The solubility in data set [6] (organic solvent or mixture, EtOH, ambient temperature) was below 1000 µg/mL; in data set [6] (organic solvent or mixture, HFIPA, ambient temperature), 10000 µg/mL; in data set [6] (organic solvent or mixture, MeOH, ambient temperature) it was 2000 µg/mL; in data set [6] (organic solvent or mixture, MeOH:THF 50:50, ambient temperature), 1000 µg/mL; in data set [6] (organic solvent or mixture, TFE, ambient temperature), 4000 µg/mL; in data set [6] (organic solvent or mixture, THF, ambient temperature) it was below 1000 µg/mL. Also, the solubility in data set [6] (organic solvent or mixture, chloroform, ambient temperature) was below 1000 µg/mL; in data set [6] (organic solvent or mixture, chloroform:EtOH 50:50, ambient temperature), below 1000 µg/mL; in data set [6] (organic solvent or mixture, p-dioxane, ambient temperature), below 1000 µg/mL; in data set [6] (Water, added all at once, stirred ~24 hours), below 4000 µg/mL.
As for `CC[C@H]1CC2C[C@H]3c4[nH]c5ccc(O)cc5c4CCN(C2)C13` [Phosphate, Form C, noribogaine phosphate], the “Approx. Aqueous Solubility” value in data set [4] is 23000 µg/mL. The DVS weight gain result in data set [5] (between 5 and 95% RH) was “approximately 3.3 wt %”. In data set [5] (equilibration to 5% RH), the “DVS weight loss upon equilibration” value is given as “approximately 1 wt %”. In addition, the “State of the solids after DVS sorption/desorption” value in data set [5] is “remained Form C”. Also, the “TGA sharp weight loss / onset” value in data set [3] worked out at 241 °C. Also, the TGA weight loss entry in data set [3] (from 30 to 140° C.) is given as “approximately 1.6%”.
As for `CC[C@H]1CC2C[C@H]3c4[nH]c5ccc(O)cc5c4CCN(C2)C13` [Sulfate, Form D, noribogaine sulfate ansolvate], in data set [4], the “Approx. Aqueous Solubility” value is above 80000 µg/mL. The DVS weight gain entry in data set [5] (between 75 and 95% RH) is given as “approximately 26 wt %”; in data set [5] (up to 75% RH) it was “about 0.7 wt %”. Also, the “State of the solids after DVS sorption/desorption” value in data set [5] (listed as sulfate salt) is recorded as “deliquesced”. The “TGA sharp weight loss / onset” value in data set [3] is “approximately 274 °C”. Besides, in data set [3] (from approximately 160 to 245° C.), the TGA weight loss is on record as 4.9 wt %.
With `CC[C@H]1CC2C[C@H]3c4[nH]c5ccc(O)cc5c4CCN(C2)C13` [Tosylate, Form B, tosylate salt of noribogaine], the “Approx. Aqueous Solubility” value in data set [4] stood at 3000 µg/mL.

By solubility is commonly meant the concentration that dissolves in the medium under given conditions.
